Experimental data taken from patent publication US20120270251A1, “INHIBITION OF THE ACTIVITY OF KINASE AND SYNTHETASE ENZYMES” (CSIR, priority 2009, published 2012).

Biological target: Mycobacterium tuberculosis shikimate kinase (Mycobacterium tuberculosis, UniProt P9WPY3)
Assay: Shikimate kinase steady-state kinetics, ATP vs C8D-ATP
Assay type: biochemical
Description: Hexokinase from Saccharomyces cerevisiae Type F-300 (Sigma, H4502) and Acetate kinase from E. coli (Sigma, A7437) were purchased. The human adenylate kinase (AK1) gene in vector pLIG-SC1 was obtained from the Structural Genomics Consortium (code AK1A). The His-tagged AK1 was produced in Escherichia coli Origami (DE3) and purified using the Bio-Rad Profinia Purification System. […] The Mycobacterium tuberculosis shikimate kinase gene in pET15b (Novagen) was obtained from the group of Chris Abell, Cambridge University, UK. The his-tagged MtSK was produced in E. coli BL21 (DE3) and purified using the Bio-Rad Profinia Purification System. The pure protein was dialysed against 50 mM Tris (pH 7.5) and 1,000 mM NaCl. Adenylylated (GS12) and deadenylylated (GS0) glutamine synthetase were prepared as outlined below.
The final volumes were 100 μl, and the reactions were incubated at 37° C. for 20 minutes, before being terminated by the addition of 5 μl 200 mM EDTA.
The results are reflected in FIGS. 19 to 25. […] The best-fit to the data was obtained for the specified kinetic model using the non-linear regression algorithms as outlined using the GraphPad Prism® 5 software. […] These response curves were then used to define the KIE by the conventional estimation of KIE from KIE=vH/vD. The KIED was also determined using the following function: […]

[1] = tested model: Allosteric sigmoidal

Chain of Mycobacterium tuberculosis shikimate kinase (P9WPY3 whole entry): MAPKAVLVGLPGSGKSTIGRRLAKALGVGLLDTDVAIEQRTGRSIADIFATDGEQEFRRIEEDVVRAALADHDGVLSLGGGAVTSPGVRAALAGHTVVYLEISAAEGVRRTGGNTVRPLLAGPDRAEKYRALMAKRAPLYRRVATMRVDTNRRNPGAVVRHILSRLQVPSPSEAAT

| Structure (SMILES) | fit to kinetic model [1] | fit to kinetic model (tested model: Michaelis-Menton) | KIEvmax (KIE at maximum enzyme activity) |
| --- | --- | --- | --- |
| Nc1ncnc2c1ncn2[C@@H]1O[C@H](COP(=O)(O)OP(=O)(O)OP(=O)(O)O)[C@@H](O)[C@H]1O [ATP, adenosine triphosphate, reference compound] | Allosteric sigmoidal | Fit ambiguous | – |
| Nc1ncnc2c1ncn2[C@@H]1O[C@H](COP(=O)(O)OP(=O)(O)OP(=O)(O)O)[C@@H](O)[C@H]1O [C8D-ATP] | Allosteric sigmoidal | Fit ambiguous | 1 |
